# Measured values taken from patent US20110152267A1, “Compositions and Methods for Treating Hyperproliferative Disorders” (Texas Tech University System, priority 2009, published 2011).
# Columns and labels:
# Format in all cases: cell-based, human
# [1] = tested on: A-549 lung adenocarcinoma cell line; assay: DIMSCAN cytotoxicity, fenretinide + L-threo-sphinganines 3:1 (Example B13); conditions: 96 h
# Procedure: (§1) Cytotoxicity Assay—Once again, cytotoxicity is determined using the DIMSCAN assay system (R. Proffitt et al., Cytometry 24, 204-213 (1996); T. Frgala et al., Mol Cancer Ther. 6:886-97, 2007). The system employs digital imaging microscopy to quantify viable cells, which selectively accumulate fluorescein diacetate to become brightly fluorescent. The system is capable of measuring cytotoxicity over a 4-5 log dynamic range by quenching the residual fluorescence of dead and dying cells with eosin Y and quantifying the total fluorescence of viable cells using digital thresholding. Measured fluorescence is directly proportionate to the number of viable cells. A comparison of the total fluorescence of a drug-treated cell population to the fluorescence of a similar number of untreated cells yields a survival fraction. In brief, 2000 to 10,000 cells/well (depending on size and growth rates) are replicate plated into 60 wells of a 96-well tissue culture plate in 0.1 mL of whole medium and allowed to attach overnight. Drug(s) are then added in 0.05 mL of whole medium to the final concentrations indicated. Drugs (fenretinide, and various chain length L-threo-sphinganines) were tested both as single agents and in a 3:1 ratio of fenretinide:sphinganine. C18-L-threo-sphinganine, or “safingol,” was also tested and results shown for reference. There are 12 wells treated per drug concentration. Twelve wells receive drug vehicle-only to the appropriate final concentration and serve as controls for the plate. Cells are incubated for 96 hours at 37° C. in ambient air with 5% CO2. Fluorescein diacetate is then added to each well in 0.05 mL media to a final concentration of 8 microgram/mL. Cells are incubated for a further 15 minutes at 37° C. and 0.03 mL of 0.5% eosin Y is added to each well. Total fluorescence of viable cells is then measured by digital imaging microscopy. Results were graphed as the ratio of the fluoresecence of drug-treated wells to non-drug treated control wells (i.e., Survival Fraction). All tests were performed at least twice. Representative results are shown.
# (§2) The Combination Index (CI) is a term to describe mathematical modeling of the pharmacologic effects on cytotoxicity (cell death) of two drugs in combination based. Cytotoxic “synergy” is defined as a cell death affect which is greater than would be expected from a simple product of the single agent cytotoxicities alone (i.e. an “additive” effect). By Chou-Talalay analysis, a CI<0.9 on a Fraction Affected (“Fa”, i.e. fraction of cells killed) indicates synergy, with smaller numbers indicating greater synergy; a CI of 0.9-1.1 signifies an additive or near-additive effect; and a CI>1.1 means the drug combination is antagonistic.
# Fenretinide and L-threo-sphinganines tested in human lung adenocarcinoma (lung cancer) cell line, A-549.
# [2] = tested on: U-118 Glioblastoma cell line; assay: DIMSCAN cytotoxicity, fenretinide + L-threo-sphinganines 3:1 (Example B5); parameters: key to CI (Combination Index): CI<0.9 synergy, 0.9-1.1 additive, >1.1 antagonistic; conditions: U-118 MG, 96 h
# Procedure: as §1, §2
# Fenretinide and L-threo-sphinganines tested in human Glioblastoma (brain cancer) cell line, U-118.
# [3] = tested on: MCF-7 breast adenocarcinoma cell line; assay: DIMSCAN cytotoxicity, fenretinide + L-threo-sphinganines 3:1 (Example B14); conditions: 96 h
# Procedure: as §1, §2
# (§3) Fenretinide and L-threo-sphinganines tested in human breast adenocarcinoma (breast cancer) cell lines, MCF-7 and MDA-MB-231.
# [4] = tested on: MDA-MB-231 breast adenocarcinoma cell line; assay: as above; conditions: MDA-MB-231, 20% O2, 96 h
# Procedure: as §1, §2, §3
# [5] = tested on: PC-3 prostate adenocarcinoma cell line; assay: DIMSCAN cytotoxicity, fenretinide + L-threo-sphinganines 3:1 (Example B17)
# Procedure: as §1, §2
# Fenretinide and L-threo-sphinganines tested in human prostate adenocarcinoma (prostate cancer) cell line, PC-3.
# [6] = tested on: RPMI-8226 Multiple Myeloma cell line; assay: DIMSCAN cytotoxicity, fenretinide + L-threo-sphinganines 3:1 (Example B2); conditions: 96 h
# Procedure: as §1, §2
# Fenretinide and L-threo-sphinganines tested in human Multiple Myeloma (a cancer of the blood and bone marrow) cell line, RPMI-8226.
# [7] = tested on: A-2058 melanoma cell line; assay: DIMSCAN cytotoxicity, fenretinide + L-threo-sphinganines 3:1 (Example B11); conditions: 96 h
# Procedure: as §1, §2
# Fenretinide and L-threo-sphinganines tested in human melanoma (skin cancer) cell line, A-2058.
# [8] = 4-HPR 1.5 μM + L-threo-sphinganine 0.5 μM
# [9] = 4-HPR 3 μM + L-threo-sphinganine 1 μM
# [10] = 4-HPR 6 μM + L-threo-sphinganine 2 μM
# [11] = 4-HPR 9 μM + L-threo-sphinganine 3 μM
smiles,measurement,setting,value
"CCCCCCCCCCCCCC[C@H](O)[C@@H](N)CO [C17, (2S,3S)-2-amino-1,3-heptadecanediol]",CI (Combination Index),[1]; [8],1.6
same,Fa (fraction affected),[1]; [8],0.01
same,CI (Combination Index),[1]; [9],1.5
same,Fa (fraction affected),[1]; [9],0.010
same,CI (Combination Index),[1]; [10],1.0
same,Fa (fraction affected),[1]; [10],0.010
same,CI (Combination Index),[1]; [11],1.1
same,Fa (fraction affected),[1]; [11],0.010
same,CI (Combination Index),[2]; [8],1.7
same,Fa (fraction affected),[2]; [8],0.519
same,CI (Combination Index),[2]; [9],1.8
same,Fa (fraction affected),[2]; [9],0.791
same,CI (Combination Index),[2]; [10],1.5
same,Fa (fraction affected),[2]; [10],0.951
same,CI (Combination Index),[2]; [11],0.7
same,Fa (fraction affected),[2]; [11],0.995
same,CI (Combination Index),[3]; [8],1.3
same,Fa (fraction affected),[3]; [8],0.112
same,CI (Combination Index),[3]; [9],0.7
same,Fa (fraction affected),[3]; [9],0.661
same,CI (Combination Index),[3]; [10],0.4
same,Fa (fraction affected),[3]; [10],0.974
same,CI (Combination Index),[3]; [11],0.4
same,Fa (fraction affected),[3]; [11],0.993
same,CI (Combination Index),[4]; [8],1.3
same,Fa (fraction affected),[4]; [8],0.127
same,CI (Combination Index),[4]; [9],0.9
same,Fa (fraction affected),[4]; [9],0.265
same,CI (Combination Index),[4]; [10],0.8
same,Fa (fraction affected),[4]; [10],0.610
same,CI (Combination Index),[4]; [11],0.7
same,Fa (fraction affected),[4]; [11],0.948
same,CI,[5]; [8],0.7
same,Fa,[5]; [8],0.214
same,CI,[5]; [9],0.9
same,Fa,[5]; [9],0.338
same,CI,[5]; [10],0.8
same,Fa,[5]; [10],0.623
same,CI,[5]; [11],0.5
same,Fa,[5]; [11],0.862
same,CI (Combination Index),[6]; [8],1.12
same,Fa (fraction affected),[6]; [8],0.549
same,CI (Combination Index),[6]; [9],1.00
same,Fa (fraction affected),[6]; [9],0.859
same,CI (Combination Index),[6]; [10],0.43
same,Fa (fraction affected),[6]; [10],0.993
same,CI (Combination Index),[6]; [11],>0.1
same,Fa (fraction affected),[6]; [11],1.000
same,CI (Combination Index),[7]; [8],0.9
same,Fa (fraction affected),[7]; [8],0.211
same,CI (Combination Index),[7]; [9],1.2
same,Fa (fraction affected),[7]; [9],0.359
same,CI (Combination Index),[7]; [10],1.4
same,Fa (fraction affected),[7]; [10],0.664
same,CI (Combination Index),[7]; [11],1.5
same,Fa (fraction affected),[7]; [11],0.849
"CCCCCCCCCCCCCCC[C@H](O)[C@@H](N)CO [C18, (2S,3S)-2-amino-1,3-octadecanediol, reference compound]",CI (Combination Index),[1]; [8],1.0
same,Fa (fraction affected),[1]; [8],0.012
same,CI (Combination Index),[1]; [9],1.0
same,Fa (fraction affected),[1]; [9],0.05
same,CI (Combination Index),[1]; [10],1.0
same,Fa (fraction affected),[1]; [10],0.200
same,CI (Combination Index),[1]; [11],0.6
same,Fa (fraction affected),[1]; [11],0.700
same,CI (Combination Index),[2]; [8],1.4
same,Fa (fraction affected),[2]; [8],0.317
same,CI (Combination Index),[2]; [9],2.3
same,Fa (fraction affected),[2]; [9],0.407
same,CI (Combination Index),[2]; [10],0.5
same,Fa (fraction affected),[2]; [10],0.976
same,CI (Combination Index),[2]; [11],0.3
same,Fa (fraction affected),[2]; [11],0.995
same,CI (Combination Index),[3]; [8],1.2
same,Fa (fraction affected),[3]; [8],0.243
same,CI (Combination Index),[3]; [9],0.6
same,Fa (fraction affected),[3]; [9],0.756
same,CI (Combination Index),[3]; [10],0.9
same,Fa (fraction affected),[3]; [10],0.824
same,CI (Combination Index),[3]; [11],0.6
same,Fa (fraction affected),[3]; [11],0.961
same,CI (Combination Index),[4]; [8],1.8
same,Fa (fraction affected),[4]; [8],0.088
same,CI (Combination Index),[4]; [9],1.8
same,Fa (fraction affected),[4]; [9],0.207
same,CI (Combination Index),[4]; [10],1.3
same,Fa (fraction affected),[4]; [10],0.597
same,CI (Combination Index),[4]; [11],0.7
same,Fa (fraction affected),[4]; [11],0.922
same,CI,[5]; [8],1.1
same,Fa,[5]; [8],0.202
same,CI,[5]; [9],1.4
same,Fa,[5]; [9],0.346
same,CI,[5]; [10],1.1
same,Fa,[5]; [10],0.719
same,CI,[5]; [11],0.7
same,Fa,[5]; [11],0.918
same,CI (Combination Index),[6]; [8],1.0
same,Fa (fraction affected),[6]; [8],0.616
same,CI (Combination Index),[6]; [9],0.9
same,Fa (fraction affected),[6]; [9],0.879
same,CI (Combination Index),[6]; [10],0.2
same,Fa (fraction affected),[6]; [10],0.997
same,CI (Combination Index),[6]; [11],>0.1
same,Fa (fraction affected),[6]; [11],1
same,CI (Combination Index),[7]; [8],>1
same,Fa (fraction affected),[7]; [8],0.001
same,CI (Combination Index),[7]; [9],>1
same,Fa (fraction affected),[7]; [9],0.01
same,CI (Combination Index),[7]; [10],>1
same,Fa (fraction affected),[7]; [10],0.099
same,CI (Combination Index),[7]; [11],1.22
same,Fa (fraction affected),[7]; [11],0.815
"CCCCCCCCCCCCCCCC[C@H](O)[C@@H](N)CO [C19, (2S,3S)-2-amino-1,3-nonadecanediol]",CI (Combination Index),[1]; [8],1.6
same,Fa (fraction affected),[1]; [8],0.000
same,CI (Combination Index),[1]; [9],0.6
same,Fa (fraction affected),[1]; [9],0.007
same,CI (Combination Index),[1]; [10],0.7
same,Fa (fraction affected),[1]; [10],0.159
same,CI (Combination Index),[1]; [11],0.9
same,Fa (fraction affected),[1]; [11],0.413
same,CI (Combination Index),[2]; [8],1.3
same,Fa (fraction affected),[2]; [8],0.530
same,CI (Combination Index),[2]; [9],0.9
same,Fa (fraction affected),[2]; [9],0.882
same,CI (Combination Index),[2]; [10],0.4
same,Fa (fraction affected),[2]; [10],0.991
same,CI (Combination Index),[2]; [11],0.3
same,Fa (fraction affected),[2]; [11],0.998
same,CI (Combination Index),[3]; [8],1.2
same,Fa (fraction affected),[3]; [8],0.138
same,CI (Combination Index),[3]; [9],0.8
same,Fa (fraction affected),[3]; [9],0.736
same,CI (Combination Index),[3]; [10],0.8
same,Fa (fraction affected),[3]; [10],0.965
same,CI (Combination Index),[3]; [11],0.9
same,Fa (fraction affected),[3]; [11],0.991
same,CI (Combination Index),[4]; [8],1.2
same,Fa (fraction affected),[4]; [8],0.078
same,CI (Combination Index),[4]; [9],1.2
same,Fa (fraction affected),[4]; [9],0.195
same,CI (Combination Index),[4]; [10],1.1
same,Fa (fraction affected),[4]; [10],0.503
same,CI (Combination Index),[4]; [11],0.7
same,Fa (fraction affected),[4]; [11],0.909
same,CI,[5]; [8],1.0
same,Fa,[5]; [8],0.233
same,CI,[5]; [9],1.1
same,Fa,[5]; [9],0.406
same,CI,[5]; [10],1.1
same,Fa,[5]; [10],0.635
same,CI,[5]; [11],0.5
same,Fa,[5]; [11],0.913
same,CI (Combination Index),[6]; [8],0.9
same,Fa (fraction affected),[6]; [8],0.649
same,CI (Combination Index),[6]; [9],0.9
same,Fa (fraction affected),[6]; [9],0.895
same,CI (Combination Index),[6]; [10],0.5
same,Fa (fraction affected),[6]; [10],0.996
same,CI (Combination Index),[6]; [11],>0.1
same,Fa (fraction affected),[6]; [11],1.000
same,CI (Combination Index),[7]; [8],2.1
same,Fa (fraction affected),[7]; [8],0.016
same,CI (Combination Index),[7]; [9],1.7
same,Fa (fraction affected),[7]; [9],0.198
same,CI (Combination Index),[7]; [10],1.8
same,Fa (fraction affected),[7]; [10],0.648
same,CI (Combination Index),[7]; [11],0.8
same,Fa (fraction affected),[7]; [11],0.997
